Literature values in patent US7759361B2, “Azabicyclooctan-3-one derivatives and use thereof” (Aprea AB, priority 2004, dated 2010).

Test system: cells carrying mutant p53
Conditions: disclosed in WO 02/24692

## O=C1C2CCN(CC2)C1(CO)CO [PRIMA-1, 2,2-bis(hydroxymethyl)-1-azabicyclo[2.2.2]octan-3-one]
  induction of apoptosis: able to induce apoptosis
